Reference: PMC6501426 (Clinical Epigenetics, 2019)

Key:
[1] = tested on: PBMCs (non-proliferating, healthy donors); test: Cell viability, trypan blue exclusion; format: cell-based; settings: Homo sapiens, PBMC, 48 h of treatment, read-out: IC50 ± SD, cell viability, PBMCs
Method: (§1) Peripheral blood mononuclear cells (PBMCs) from healthy donors were isolated as previously described. Freshly isolated PBMCs were either cultured and treated at 1.10^6 cells/mL (non-proliferating PBMCs) or stimulated with phytohaemoagglutinin (PHA) and interleukin (IL)-2 (called PHA_PBMCs) to induce blastogenesis in T lymphocytes before treatments as previously described. Briefly, freshly isolated PBMCs were seeded at a concentration of 2.10^6 cells/mL in RMPI 1640 supplemented with 1% antibiotic-antimycotic (Lonza, Verviers, Belgium) and 10% human AB serum (Corning, Fisher scientific, Merelbeke, Belgium). After overnight incubation, floating lymphoid cells were collected and seeded at 1.10^6 cells/mL in RMPI 1640 supplemented with 1% antibiotic-antimycotic, 5% FBS, 10% human AB serum, 1 μg/mL PHA (Gentaur, Kampenhout, Belgium), 50 U/mL IL-2 (Roche, Prophac, Luxembourg City, Luxembourg), 1% non-essential amino acids (Invitrogen, Luxembourg), 1% HEPES (Invitrogen, Luxembourg), 1% sodium pyruvate (Invitrogen, Luxembourg), and 0.1% β-mercaptoethanol (Invitrogen, Luxembourg). After 72 h, the cells were seeded at 1.10^6 cells/mL in the same mitogenic growth medium described just above and treated with test compounds.
(§2) Proliferation and viability of U-937, KG-1, RAJI, PC-3, MDA-MB-231, RPMI1788, PBMCs, and PHA_PBMCs were assessed by trypan blue exclusion assays at the indicated time points. Nuclear morphology changes associated with apoptosis and necrosis were evaluated by fluorescence microscopy after Hoechst and propidium iodide (PI) staining as previously described.
(§3) IC50 values of compounds against cellular viability were determined by using nonlinear regression fitting curves with GraphPad Prism 8 or CalcuSyn software The t test used for statistical analyses was performed with GraphPad Prism 8. All the tests were one-tailed, and a p value < 0.05 was considered statistically significant.

[2] = tested on: PHA_PBMCs (phytohemagglutinin-stimulated PBMCs); test: Cell viability, trypan blue exclusion; format: cell-based; settings: Homo sapiens, PBMC; 48 h of treatment; proliferating, PHA-stimulated; read-out: IC50 ± SD, cell viability, PHA_PBMCs
Method: as §1, §2, §3

[3] = tested on: DNMT3A protein level in PC-3 cells; test: Western blot of DNMT3A protein in PC-3; format: cell-based, human; settings: 24 h; 1 μM requested for the effect
Source text: (§4) Cells were lysed in Laemmli buffer; subsequently, the proteins were resolved by sodium dodecyl sulfate-polyacrylamide gel electrophoresis and transferred to a 0.45-μm nitrocellulose membrane (Bio-Rad Laboratories, Hercules, CA). The following primary antibodies were used for immunoblotting: α-E-cadherin (BD Transduction Laboratories, Franklin Lakes, NJ), α-MMP2 (Abcam), α-DNMT3a (Santa Cruz Biotechnologies, Dallas, TX), and α-GAPDH (Millipore Corp., Bedford, MA), used as a loading control. The immune complexes were detected with horseradish peroxidase-conjugated species-specific secondary antiserum (Bio-Rad Laboratories, Milan, Italy) then by enhanced chemiluminescence reaction (Bio-Rad Laboratories, Milan, Italy). Densitometric analysis of protein expression was performed by using the Fiji ImageJ image processing package.
GAPDH was used as a loading control. Blots are representative of two independent experiments

[4] = tested on: MMP2 protein in PC-3 cells; test: Western blot of MMP2 in PC-3; format: cell-based, human; settings: 1 μM, 24 h
Source text: as §4
Fig. 8 Effects of MC3353 on E-cadherin and MMP2 protein expression levels in PC-3 cancer cells. Cells were treated with vehicle (DMSO) used as control (CTR) or MC3353 for 24 h. a E-cadherin and MMP2 protein detection by western blot. GAPDH was used as a loading control. Blots are representative of three independent experiments. b Densitometric analysis of E-cadherin and MMP2 protein expression. Significance is represented as *p < 0.05 related to the control groups. Data were obtained from three independent experiments and expressed as mean ± SEM

[5] = tested on: ALP expression in Saos-2 cells; test: Saos-2 osteoblast differentiation, RT-qPCR; format: cell-based, human; settings: 0.5 and 1 μM, only at the most extended exposure (day 21)
Method: (§5) Four days after seeding, Saos-2 cells were exposed to specific osteogenic medium (IMDM supplemented with 2% FBS, 5 mM β-glycerophosphate, and 50 μg/mL ascorbic acid, Sigma-Aldrich, Milan, Italy) without (control) or with MC3353 (0.5–1 μM) or DAC (0.1–0.5 μM) and maintained in differentiating conditions for up to 21 days. The medium was renewed every 4 days, and the cells were harvested at various time points to collect total RNA and verify bone mineralization. Specific osteoblastic markers were evaluated by quantitative real-time PCR (RT-qPCR) as previously described. The primers or assays (Applied Biosystems, Foster City, CA, USA) used are as follows: GAPDH (forward: 5′-[…]-3′, reverse: 5′-[…]-3′ and probe: 5′-[…]-3′), OCN (forward: 5′-[…]-3′, reverse: 5′-[…]-3′), ALP (Hs01029144_m1), and COL1A2 (Hs01028970_m1). Amplification reactions were performed using a ViiA7™ Real-Time PCR System (Life Technologies, Carlsbad, CA, USA). To visualize bone mineralization (osteoblastic differentiation) after 7–21 days of MC3353 or DAC treatment, the plates were stained with 40 mM Alizarin red stain (ARS, Sigma-Aldrich, Milan, Italy). ARS staining was visualized with an ECLIPSE 90i microscope (Nikon, Minato, Tokyo, Japan) equipped with Plan fluor 10× NA 0.3. Images were acquired with an autocapture setting using a digital color camera (Nikon DS5 MC) and NIS-Elements AR3.10 software (Nikon, Minato, Tokyo, Japan).

[6] = tested on: COL1A2 expression in Saos-2 cells; test: Saos-2 osteoblast differentiation, RT-qPCR; format: cell-based, human; settings: 0.5 and 1 μM, along 3 weeks, osteogenic medium
Method: as §5

[7] = tested on: OCN expression in Saos-2 cells; test: Saos-2 osteoblast differentiation, RT-qPCR; format: cell-based, human; settings: 0.5 and 1 μM, along 3 weeks, osteogenic medium
Method: as §5

Saos-2 cells = test: Saos-2 matrix mineralization, Alizarin red staining; format: cell-based, human; settings: 7–21 days, differentiation medium
Method: as §5, with “Images were acquired with an autocapture setting using a digital color camera (Nikon DS5 MC) and NIS-Elements AR3.10 software (Nikon, Minato, Tokyo, Japan).” left out

O=C(Nc1ccc(NC(=O)c2ccc(Nc3ccnc4ccccc34)cc2)cc1)OCc1ccccc1 [MC3353, Benzyl (4-(4-(quinolin-4-ylamino)benzamido)phenyl)carbamate]
IC50 [1]: 8.9 ± 4.2 µM | IC50 [2]: 4.6 ± 0.5 µM | DNMT3A protein expression level (western blot), PC-3 [3]: DNMT3A protein downregulation was observed | MMP2 protein level (western blot, densitometry), PC-3 [4]: reduced MMP2 protein levels | ALP expression, Saos-2 [5]: weak induction of ALP expression | COL1A2 expression, Saos-2 [6]: dose-dependently decreased COL1A2 expression | OCN expression, Saos-2 [7]: increased OCN expression | mineralized matrix production (ARS staining), Saos-2 (Saos-2 cells): augment mineralized matrix production
